From ChEMBL document CHEMBL1821601, “Impact of passive permeability and gut efflux transport on the oral bioavailability of novel series of piperidine-based renin inhibitors in rodents” (Bioorg Med Chem Lett, 2011)
Values belong to the compound of their own block, whether it stands above or below them.

Tests used:
[1] = (§1) Oral bioavailability in rat at 3 mg/kg; type: ADME, organism-based; conditions: in vivo
rat Mdr1a = test: Apparent permeability across pig LLC-PK1 cells transfected with rat Mdr1a; type: ADME, cell-based, Sus scrofa
[2] = Oral bioavailability in rat at 3 mg/kg pre-dosed with 50 mg/kg, po of Pgp and Bcrp inhibitor elacridar 15 mins before drug challenge; type: ADME, organism-based; conditions: in vivo
[3] = as §1; type: ADME, organism-based; conditions: in vivo; remark: listed apart in the source
LLC-PK1 = test: Ratio of permeability from basolateral to apical side to apical to basolateral side of pig LLC-PK1 cells transfected with rat Mdr1a; type: ADME, cell-based, Sus scrofa
[4] = Oral bioavailability in rat at 0.3 mg/kg pre-dosed with 50 mg/kg, po of Pgp and Bcrp inhibitor elacridar 15 mins before drug challenge; type: ADME, organism-based; conditions: in vivo
[5] = Oral bioavailability in rat at 0.3 mg/kg; type: ADME, organism-based; conditions: in vivo
[6] = Lipophilicity, Log D of the compound at pH 7 by RP-HPLC analysis; type: physicochemical; conditions: buffer
[7] = Apparent Passive permeability across pig LLC-PK1 cells; type: ADME, cell-based, Sus scrofa
[8] = Cmax in rat plasma at 3 mg/kg, po; type: ADME, organism-based; parameters: dose 3 mg/kg, route oral
[9] = (§2) Oral bioavailability in rat at 30 mg/kg; type: ADME, organism-based; conditions: in vivo
[10] = Plasma clearance in rat at 30 mg/kg, po and 5 mg/kg, iv; type: ADME, organism-based
[11] = Plasma clearance in dog at 3 mg/kg, po and 1 mg/kg, iv; type: ADME, organism-based, Canis lupus familiaris
[12] = as §2; type: ADME, organism-based; conditions: in vivo; remark: listed apart in the source
[13] = Oral bioavailability in dog at 3 mg/kg; type: ADME, organism-based, Canis lupus familiaris; conditions: in vivo
[14] = Drug recovery in permanently bile-duct cannulated rat bile supplimented with artificial bile at 20 mg/kg, po after 48 hrs by HPLC-MS/MS analysis; type: ADME, organism-based; parameters: dose 20 mg/kg, route oral; conditions: read-out: Drug uptake
[15] = Drug recovery in permanently bile-duct cannulated rat urine supplimented with artificial bile at 20 mg/kg, po after 48 hrs by HPLC-MS/MS analysis; type: ADME, organism-based; parameters: dose 20 mg/kg, route oral; conditions: read-out: Drug uptake
[16] = Drug recovery in permanently bile-duct cannulated rat feces supplimented with artificial bile at 20 mg/kg, po after 48 hrs by HPLC-MS/MS analysis; type: ADME, organism-based; parameters: dose 20 mg/kg, route oral; conditions: faeces, read-out: Drug uptake
[17] = Drug recovery in permanently bile-duct cannulated rat bile supplimented with artificial bile at 5 mg/kg, iv after 48 hrs by HPLC-MS/MS analysis; type: ADME, organism-based; parameters: dose 5 mg/kg, route intravenous; conditions: read-out: Drug uptake
[18] = Drug recovery in permanently bile-duct cannulated rat urine supplimented with artificial bile at 5 mg/kg, iv after 48 hrs by HPLC-MS/MS analysis; type: ADME, organism-based; parameters: dose 5 mg/kg, route intravenous; conditions: read-out: Drug uptake
[19] = Drug recovery in permanently bile-duct cannulated rat feces supplimented with artificial bile at 5 mg/kg, iv after 48 hrs by HPLC-MS/MS analysis; type: ADME, organism-based; parameters: dose 5 mg/kg, route intravenous; conditions: faeces, read-out: Drug uptake
[20] = Drug recovery in permanently bile-duct cannulated rat supplimented with artificial bile at 20 mg/kg, po after 48 hrs by HPLC-MS/MS analysis; type: ADME, organism-based; parameters: dose 20 mg/kg, route oral; conditions: in vivo, read-out: Drug uptake
[21] = Drug recovery in permanently bile-duct cannulated rat supplimented with artificial bile at 5 mg/kg, iv after 48 hrs by HPLC-MS/MS analysis; type: ADME, organism-based; parameters: dose 5 mg/kg, route intravenous; conditions: in vivo, read-out: Drug uptake
[22] = Plasma clearance in rat at 0.5 mg/kg, iv; type: ADME, organism-based; parameters: dose 0.5 mg/kg, route intravenous
[23] = Plasma clearance in rat at 5 mg/kg, iv; type: ADME, organism-based; parameters: dose 5 mg/kg, route intravenous
[24] = Oral bioavailability in rat at 10 mg/kg; type: ADME, organism-based; conditions: in vivo
[25] = AUC (0 to 24 hrs) in FVB mouse expressing wild type MDR1a at 30 mg/kg, po; type: ADME, organism-based; parameters: time < 24 hr, dose 30 mg/kg, route oral; conditions: plasma
[26] = Drug uptake in FVB mouse expressing wild type MDR1a brain at 30 mg/kg, po after 24 hrs; type: ADME, organism-based; parameters: dose 30 mg/kg, route oral; conditions: read-out: Drug uptake
[27] = Drug uptake in FVB mouse expressing wild type MDR1a brain at 5 mg/kg, iv after 24 hrs; type: ADME, organism-based; parameters: dose 5 mg/kg, route intravenous; conditions: read-out: Drug uptake
[28] = Oral bioavailability in FVB mouse expressing wild type MDR1a at 30 mg/kg; type: ADME, organism-based; conditions: in vivo
[29] = Blood clearance in FVB mouse expressing wild type MDR1a at 30 mg/kg, po and 5 mg/kg, iv; type: ADME, organism-based; conditions: whole blood
Mus musculus [30] = test: Volume of distribution at steady state in FVB mouse expressing wild type MDR1a at 30 mg/kg, po and 5 mg/kg, iv; type: ADME, organism-based; conditions: in vivo
[31] = AUC (0 to 24 hrs) in MDR1a-deficient FVB mouse at 30 mg/kg, po; type: ADME, organism-based; parameters: time < 24 hr, dose 30 mg/kg, route oral; conditions: plasma
[32] = Drug uptake in MDR1a-deficient FVB mouse brain at 30 mg/kg, po after 24 hrs; type: ADME, organism-based; parameters: dose 30 mg/kg, route oral; conditions: read-out: Drug uptake
[33] = Drug uptake in MDR1a-deficient FVB mouse brain at 5 mg/kg, iv after 24 hrs; type: ADME, organism-based; parameters: dose 5 mg/kg, route intravenous; conditions: read-out: Drug uptake
[34] = Oral bioavailability in MDR1a-deficient FVB mouse at 30 mg/kg; type: ADME, organism-based; conditions: in vivo
[35] = Blood clearance in MDR1a-deficient FVB mouse at 30 mg/kg, po and 5 mg/kg, iv; type: ADME, organism-based; conditions: whole blood
Mus musculus [36] = test: Volume of distribution at steady state in MDR1a-deficient FVB mouse at 30 mg/kg, po and 5 mg/kg, iv; type: ADME, organism-based; conditions: in vivo
Mus musculus [37] = test: Ratio of AUC (0 to 24 hrs) in MDR1a-deficient FVB mouse to AUC (0 to 24 hrs) in FVB mouse expressing wild type MDR1a at 30 mg/kg, po; type: ADME, organism-based; parameters: dose 30 mg/kg, route oral; conditions: in vivo
Brain [38] = test: Ratio of drug uptake in MDR1a-deficient FVB mouse brain to drug uptake in FVB mouse expressing wild type MDR1a brain at 30 mg/kg, po after 24 hrs; type: ADME, organism-based; parameters: dose 30 mg/kg, route oral; conditions: in vivo
Brain [39] = test: Ratio of drug uptake in MDR1a-deficient FVB mouse brain to drug uptake in FVB mouse expressing wild type MDR1a brain at 5 mg/kg, iv after 24 hrs; type: ADME, organism-based; parameters: dose 5 mg/kg, route intravenous; conditions: in vivo
Mus musculus [40] = test: Ratio of oral bioavailability in MDR1a-deficient FVB mouse to oral bioavailability in FVB mouse expressing wild type MDR1a at 30 mg/kg; type: ADME, organism-based; conditions: in vivo
Mus musculus [41] = test: Ratio of blood clearance in MDR1a-deficient FVB mouse to blood clearance in FVB mouse expressing wild type MDR1a at 30 mg/kg, po and 5 mg/kg, iv; type: ADME, organism-based; conditions: in vivo
Mus musculus [42] = test: Ratio of volume of distribution at steady state in MDR1a-deficient FVB mouse to volume of distribution at steady state in FVB mouse expressing wild type MDR1a at 30 mg/kg, po and 5 mg/kg, iv; type: ADME, organism-based; conditions: in vivo
[43] = AUC (0 to 24 hrs) in rat at 3 mg/kg, po pre-dosed with 50 mg/kg, po of Pgp and Bcrp inhibitor elacridar 15 mins before drug challenge; type: ADME, organism-based; parameters: dose 3 mg/kg, time < 24 hr, route oral; conditions: plasma

Compound: COc1cc2c(cc1OC)CN(CCc1ccc(NC(=O)c3cccc4c(=O)c5cccc(OC)c5[nH]c34)cc1)CC2 [ELACRIDAR]
- Cmax [8]: 200 nM

Compound: COCCCc1cc(CN(C(=O)[C@H]2CNCC[C@@H]2c2ccn(C)c(=O)c2)C2CC2)cc(OCCOC)c1.Cl
- bioavailability [9]: 3%
- clearance [10]: 31 mL/min/kg
- clearance [11]: 9.2 mL/min/kg
- bioavailability [12]: 3%
- bioavailability [13]: 1%
- dose excreted at 48 h [14]: 0.1%
- dose excreted at 48 h [15]: 2%
- dose excreted at 48 h [16]: 73%
- dose excreted at 48 h [17]: 25%
- dose excreted at 48 h [18]: 10%
- dose excreted at 48 h [19]: 10%
- dose excreted at 48 h [20]: 75%
- dose excreted at 48 h [21]: 45%
- bioavailability [1]: 0.5%
- clearance [22]: 43 mL/min/kg
- Papp (rat Mdr1a): < 3 ×10⁻⁶ cm/s
- logD [6]: 0.9
- Papp [7]: 2 ×10⁻⁶ cm/s
- clearance [23]: 31 mL/min/kg

Compound: COCCCc1cc(CN(C(=O)[C@H]2CNCC[C@@H]2c2ccn(C)c(=O)c2)C2CC2)cc(Br)c1C
- bioavailability [9]: 17%
- bioavailability [1]: 6%
- bioavailability [24]: 7%
- clearance [22]: 125 mL/min/kg
- Papp (rat Mdr1a): 2 ×10⁻⁶ cm/s
- AUC(0-t) at 24 h [25]: 0.8 µM·h
- concentration at 24 h [26]: 8 nM
- concentration at 24 h [27]: 7.3 nM
- bioavailability [28]: 7%
- clearance [29]: 82 mL/min/kg
- Vdss (Mus musculus [30]): 3.7 L/kg
- AUC(0-t) at 24 h [31]: 4 µM·h
- concentration at 24 h [32]: 504 nM
- concentration at 24 h [33]: 239 nM
- bioavailability [34]: 29%
- clearance [35]: 72 mL/min/kg
- Vdss (Mus musculus [36]): 4.7 L/kg
- fold change (FC) (Mus musculus [37]): 5
- fold change (FC) (Brain [38]): 63
- fold change (FC) (Brain [39]): 32
- fold change (FC) (Mus musculus [40]): 4
- fold change (FC) (Mus musculus [41]): 0.9
- fold change (FC) (Mus musculus [42]): 1.3
- bioavailability [2]: 31%
- AUC(0-t) at 24 h [43]: 0.044 µM·h
- bioavailability [3]: 3%
- clearance [23]: 75 mL/min/kg

More lines, now with the values ahead:

- bioavailability [1]: 29%
- Papp (rat Mdr1a): 22 ×10⁻⁶ cm/s
- bioavailability [2]: 24%
- bioavailability [3]: 29%
- Ratio (LLC-PK1): 19
- bioavailability [4]: 14%
- bioavailability [5]: 17%
- logD [6]: 2.6
- Papp [7]: 22 ×10⁻⁶ cm/s
Compound: COCCOc1cc(CCOC)cc(CN(C(=O)[C@H]2CNCC[C@]2(O)c2ccc(F)c(F)c2)C2CC2)c1

- bioavailability [1]: 16%
- logD [6]: 3.1
- Papp [7]: 11 ×10⁻⁶ cm/s
Compound: COCCc1ccc(Cl)c(CN(C(=O)[C@H]2CNCC[C@]2(O)c2ccc(F)c(F)c2)C2CC2)c1

- bioavailability [1]: 1%
- logD [6]: 1
- Papp [7]: 1 ×10⁻⁶ cm/s
Compound: COCCc1ccc(Cl)c(CN(C(=O)[C@H]2CNCC[C@@H]2c2ccn(C)c(=O)c2)C2CC2)c1

- clearance [10]: 11 mL/min/kg
- clearance [11]: 26 mL/min/kg
- bioavailability [12]: 27%
- bioavailability [13]: 44%
Compound: COCCCc1cc(CN(C(=O)[C@H]2CNCC[C@@H]2c2ccc(OCCOc3c(Cl)cc(C)cc3Cl)cc2)C2CC2)cc(OCCOC)c1.Cl

- bioavailability [9]: 24%
- bioavailability [1]: 2%
- bioavailability [24]: 21%
- clearance [22]: 57 mL/min/kg
- Papp (rat Mdr1a): 3 ×10⁻⁶ cm/s
- bioavailability [2]: 20%
- AUC(0-t) at 24 h [43]: 0.033 µM·h
- bioavailability [3]: 2%
- clearance [23]: 67 mL/min/kg
Compound: COCCCc1cc(Cl)c(Cl)c(CN(C(=O)[C@H]2CNCC[C@@H]2c2ccn(C)c(=O)c2)C2CC2)c1
